Like-named read-outs stand apart in the source and are kept apart here.
Legend:
Experiment in all cases: DiscoverX KINOMEscan kinase profiling (468 assays)
Format in all cases: binding
[1] = target: human kinome (Homo sapiens, UniProt Q92630); details: DYRK2; 100 nM; read-out: Percent Control
How it was run: (§1)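 DNA-tagged kinases competed for immobilized biotinylated ligands on streptavidin magnetic beads, with bound kinase quantified by qPCR. VIP152 in DMSO was tested against a DMSO control.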

[2] = target: human kinome (Homo sapiens, UniProt P33981); details: kinase TTK (Entrez TTK); compound concentration 1000 nM; read-out: Percent Control
How it was run: as §1

[3] = target: human kinome (Homo sapiens, UniProt P10721, D816V); details: KIT(D816V); 100 nM; read-out: Percent Control
How it was run: as §1

[4] = target: human kinome (Homo sapiens, UniProt P07949); details: kinase RET (Entrez RET); compound concentration 1000 nM; read-out: Percent Control
How it was run: as §1

[5] = target: human kinome (Homo sapiens, UniProt Q9P0L2); details: MARK1; 100 nM; read-out: Percent Control
How it was run: as §1

[6] = target: human kinome (Homo sapiens, UniProt P46734); details: MEK3 (Entrez MAP2K3); 100 nM; read-out: Percent Control
How it was run: as §1

[7] = target: human kinome (Homo sapiens, UniProt P54753); details: EPHB3; 100 nM; read-out: Percent Control
How it was run: as §1

[8] = target: human kinome (Homo sapiens, UniProt Q15349); details: compound concentration 1000 nM, read-out: Percent Control
How it was run: as §1

[9] = target: human kinome (Homo sapiens, UniProt P00533, L861Q); details: EGFR(L861Q); 100 nM; read-out: Percent Control
How it was run: as §1

[10] = target: human kinome (Homo sapiens, UniProt O94921); details: read-out: Percent Control
How it was run: as §1

[11] = target: human kinome (Homo sapiens, UniProt Q13464); details: kinase ROCK1 (Entrez ROCK1); compound concentration 1000 nM; read-out: Percent Control
How it was run: as §1

[12] = target: human kinome (Homo sapiens, UniProt P10721, V559D); details: KIT(V559D); 100 nM; read-out: Percent Control
How it was run: as §1

[13] = target: human kinome (Homo sapiens, UniProt P04049); details: read-out: Percent Control
How it was run: as §1

[14] = target: human kinome (Homo sapiens, UniProt Q8WTQ7); details: GRK7; 100 nM; read-out: Percent Control
How it was run: as §1

[15] = target: human kinome (Homo sapiens, UniProt P0C264); details: kinase SgK110 (Entrez SgK110); compound concentration 1000 nM; read-out: Percent Control
How it was run: as §1

[16] = target: human kinome (Homo sapiens, UniProt P10721, T670I/V559D); details: KIT(V559D,T670I); 100 nM; read-out: Percent Control
How it was run: as §1

[17] = target: human kinome (Homo sapiens, UniProt P53671); details: LIMK2; 100 nM; read-out: Percent Control
How it was run: as §1

[18] = target: human kinome (Homo sapiens, UniProt Q9Y4K4); details: MAP4K5; 100 nM; read-out: Percent Control
How it was run: as §1

[19] = target: human kinome (Homo sapiens, UniProt Q99558); details: read-out: Percent Control
How it was run: as §1

[20] = target: human kinome (Homo sapiens, UniProt P15735); details: read-out: Percent Control
How it was run: as §1

[21] = target: human kinome (Homo sapiens, UniProt Q5S007); details: LRRK2; 100 nM; read-out: Percent Control
How it was run: as §1

[22] = target: human kinome (Homo sapiens, UniProt Q12851); details: MAP4K2; 100 nM; read-out: Percent Control
How it was run: as §1

[23] = target: human kinome (Homo sapiens, UniProt P0C1S8); details: kinase WEE2 (Entrez WEE2); compound concentration 1000 nM; read-out: Percent Control
How it was run: as §1

[24] = target: human kinome (Homo sapiens, UniProt Q9UL54); details: kinase TAOK2 (Entrez TAOK2); compound concentration 1000 nM; read-out: Percent Control
How it was run: as §1

[25] = target: human kinome (Homo sapiens, UniProt Q9UIK4); details: DAPK2; 100 nM; read-out: Percent Control
How it was run: as §1

[26] = target: human kinome (Homo sapiens, UniProt P00533, L858R); details: EGFR(L858R); 100 nM; read-out: Percent Control
How it was run: as §1

[27] = target: human kinome (Homo sapiens, UniProt P36888, D835H); details: FLT3(D835H); 100 nM; read-out: Percent Control
How it was run: as §1

[28] = target: human kinome (Homo sapiens, UniProt P45985); details: MEK4 (Entrez MAP2K4); 100 nM; read-out: Percent Control
How it was run: as §1

[29] = target: human kinome (Homo sapiens, UniProt Q9NYY3); details: read-out: Percent Control
How it was run: as §1

Chain of human kinome (Homo sapiens, UniProt P04049) (P04049 whole entry): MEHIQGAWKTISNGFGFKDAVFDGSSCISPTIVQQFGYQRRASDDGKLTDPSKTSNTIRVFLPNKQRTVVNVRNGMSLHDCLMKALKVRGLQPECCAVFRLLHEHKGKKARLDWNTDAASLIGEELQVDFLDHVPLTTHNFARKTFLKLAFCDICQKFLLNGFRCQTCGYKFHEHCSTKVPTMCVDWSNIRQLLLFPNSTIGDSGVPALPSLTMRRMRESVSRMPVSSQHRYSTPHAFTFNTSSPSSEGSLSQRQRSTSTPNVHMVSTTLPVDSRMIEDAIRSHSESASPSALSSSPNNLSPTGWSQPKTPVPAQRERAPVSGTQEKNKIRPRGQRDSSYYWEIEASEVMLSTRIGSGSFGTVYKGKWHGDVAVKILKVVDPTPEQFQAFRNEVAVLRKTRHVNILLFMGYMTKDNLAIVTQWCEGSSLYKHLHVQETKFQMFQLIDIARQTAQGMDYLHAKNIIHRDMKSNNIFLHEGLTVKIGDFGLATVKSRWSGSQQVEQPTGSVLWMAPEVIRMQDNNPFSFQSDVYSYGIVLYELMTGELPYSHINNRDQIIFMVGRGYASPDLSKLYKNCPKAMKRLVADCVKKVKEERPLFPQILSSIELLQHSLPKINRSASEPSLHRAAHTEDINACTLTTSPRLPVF
Chain of human kinome (Homo sapiens, UniProt Q15349) (Q15349 whole entry): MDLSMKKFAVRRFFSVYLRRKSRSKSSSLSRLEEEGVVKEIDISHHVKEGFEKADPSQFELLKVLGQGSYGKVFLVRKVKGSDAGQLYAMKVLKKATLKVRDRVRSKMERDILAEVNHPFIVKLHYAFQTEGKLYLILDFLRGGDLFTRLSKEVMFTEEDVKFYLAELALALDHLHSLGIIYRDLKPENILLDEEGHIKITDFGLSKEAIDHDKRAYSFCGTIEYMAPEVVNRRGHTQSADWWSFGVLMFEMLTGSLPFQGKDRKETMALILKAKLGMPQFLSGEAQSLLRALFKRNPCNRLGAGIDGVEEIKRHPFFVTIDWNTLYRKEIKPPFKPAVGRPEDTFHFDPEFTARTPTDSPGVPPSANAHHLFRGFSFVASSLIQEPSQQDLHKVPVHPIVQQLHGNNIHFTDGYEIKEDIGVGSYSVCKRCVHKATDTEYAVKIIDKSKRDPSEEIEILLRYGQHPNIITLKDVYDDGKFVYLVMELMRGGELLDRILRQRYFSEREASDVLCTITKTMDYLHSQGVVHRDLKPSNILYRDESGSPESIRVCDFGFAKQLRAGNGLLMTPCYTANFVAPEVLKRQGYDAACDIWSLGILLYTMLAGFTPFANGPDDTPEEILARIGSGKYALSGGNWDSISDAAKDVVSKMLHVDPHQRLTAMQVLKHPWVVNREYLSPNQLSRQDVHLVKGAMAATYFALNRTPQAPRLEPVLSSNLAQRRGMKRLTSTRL
Chain of human kinome (Homo sapiens, UniProt Q9NYY3) (Q9NYY3 whole entry): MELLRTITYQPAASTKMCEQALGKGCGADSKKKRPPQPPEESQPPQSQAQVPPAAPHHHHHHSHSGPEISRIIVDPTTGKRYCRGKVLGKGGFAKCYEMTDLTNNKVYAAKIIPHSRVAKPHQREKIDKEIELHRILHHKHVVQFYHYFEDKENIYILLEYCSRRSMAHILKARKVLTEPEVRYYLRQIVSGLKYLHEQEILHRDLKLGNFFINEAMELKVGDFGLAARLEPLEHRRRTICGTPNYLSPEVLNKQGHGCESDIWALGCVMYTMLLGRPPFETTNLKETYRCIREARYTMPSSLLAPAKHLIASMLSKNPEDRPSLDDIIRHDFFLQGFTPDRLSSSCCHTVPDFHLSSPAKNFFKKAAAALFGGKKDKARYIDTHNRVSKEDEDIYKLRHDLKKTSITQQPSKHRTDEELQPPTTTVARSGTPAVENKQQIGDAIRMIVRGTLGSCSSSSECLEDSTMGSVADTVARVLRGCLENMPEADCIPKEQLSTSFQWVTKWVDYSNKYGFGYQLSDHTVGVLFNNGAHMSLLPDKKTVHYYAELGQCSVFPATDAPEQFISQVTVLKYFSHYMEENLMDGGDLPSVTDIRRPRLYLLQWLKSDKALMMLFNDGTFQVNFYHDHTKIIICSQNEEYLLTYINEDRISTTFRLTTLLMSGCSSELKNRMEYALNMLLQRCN
Chain of human kinome (Homo sapiens, UniProt O94921) (O94921 whole entry): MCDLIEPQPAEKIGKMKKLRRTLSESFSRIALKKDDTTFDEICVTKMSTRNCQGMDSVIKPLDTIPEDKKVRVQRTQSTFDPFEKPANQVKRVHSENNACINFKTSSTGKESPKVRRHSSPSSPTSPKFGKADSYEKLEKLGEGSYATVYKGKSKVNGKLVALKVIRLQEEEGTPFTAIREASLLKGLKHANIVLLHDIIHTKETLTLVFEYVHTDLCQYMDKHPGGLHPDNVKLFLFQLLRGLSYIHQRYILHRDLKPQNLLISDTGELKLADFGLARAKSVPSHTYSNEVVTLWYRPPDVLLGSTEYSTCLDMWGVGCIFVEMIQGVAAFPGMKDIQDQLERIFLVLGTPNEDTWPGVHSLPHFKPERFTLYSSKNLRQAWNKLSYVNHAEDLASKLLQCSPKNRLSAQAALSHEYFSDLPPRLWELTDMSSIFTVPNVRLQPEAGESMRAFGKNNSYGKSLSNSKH
Chain of human kinome (Homo sapiens, UniProt Q99558) (Q99558 whole entry): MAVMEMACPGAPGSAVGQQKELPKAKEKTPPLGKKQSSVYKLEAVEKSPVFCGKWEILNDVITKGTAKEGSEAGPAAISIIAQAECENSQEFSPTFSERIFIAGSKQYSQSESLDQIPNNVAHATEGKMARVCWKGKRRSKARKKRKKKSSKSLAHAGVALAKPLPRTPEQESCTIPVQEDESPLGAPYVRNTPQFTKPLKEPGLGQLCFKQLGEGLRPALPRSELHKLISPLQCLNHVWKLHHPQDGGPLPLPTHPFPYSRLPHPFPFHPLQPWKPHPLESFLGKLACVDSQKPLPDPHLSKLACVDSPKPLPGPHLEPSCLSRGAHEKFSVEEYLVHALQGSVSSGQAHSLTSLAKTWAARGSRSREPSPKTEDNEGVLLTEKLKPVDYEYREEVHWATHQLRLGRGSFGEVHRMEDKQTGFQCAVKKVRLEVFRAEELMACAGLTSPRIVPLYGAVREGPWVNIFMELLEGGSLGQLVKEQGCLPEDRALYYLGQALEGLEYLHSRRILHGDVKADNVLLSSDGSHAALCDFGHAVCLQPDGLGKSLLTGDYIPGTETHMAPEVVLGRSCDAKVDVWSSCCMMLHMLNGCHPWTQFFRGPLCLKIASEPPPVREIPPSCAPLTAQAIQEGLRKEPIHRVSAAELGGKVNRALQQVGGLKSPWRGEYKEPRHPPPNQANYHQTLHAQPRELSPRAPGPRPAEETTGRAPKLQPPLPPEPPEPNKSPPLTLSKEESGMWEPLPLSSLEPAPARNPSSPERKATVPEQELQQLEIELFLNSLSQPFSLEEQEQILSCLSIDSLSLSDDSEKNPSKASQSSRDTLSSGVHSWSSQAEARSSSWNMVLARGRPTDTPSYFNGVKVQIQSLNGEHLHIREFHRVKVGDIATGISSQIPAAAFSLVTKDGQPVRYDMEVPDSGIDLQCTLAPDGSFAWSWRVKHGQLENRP
Chain of human kinome (Homo sapiens, UniProt P15735) (P15735 whole entry): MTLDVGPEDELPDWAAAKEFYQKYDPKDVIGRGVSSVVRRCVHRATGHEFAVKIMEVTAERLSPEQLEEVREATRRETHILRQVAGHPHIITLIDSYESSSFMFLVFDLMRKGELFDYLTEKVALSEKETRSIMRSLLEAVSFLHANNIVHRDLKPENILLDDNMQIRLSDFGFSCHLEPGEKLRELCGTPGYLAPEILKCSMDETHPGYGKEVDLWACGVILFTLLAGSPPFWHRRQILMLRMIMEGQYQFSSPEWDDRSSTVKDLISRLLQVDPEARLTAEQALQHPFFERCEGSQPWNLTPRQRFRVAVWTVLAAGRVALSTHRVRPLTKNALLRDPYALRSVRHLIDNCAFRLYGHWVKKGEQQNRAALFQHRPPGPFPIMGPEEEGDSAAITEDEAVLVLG
Chain of human kinome (Homo sapiens, UniProt Q8WTQ7) (Q8WTQ7 whole entry): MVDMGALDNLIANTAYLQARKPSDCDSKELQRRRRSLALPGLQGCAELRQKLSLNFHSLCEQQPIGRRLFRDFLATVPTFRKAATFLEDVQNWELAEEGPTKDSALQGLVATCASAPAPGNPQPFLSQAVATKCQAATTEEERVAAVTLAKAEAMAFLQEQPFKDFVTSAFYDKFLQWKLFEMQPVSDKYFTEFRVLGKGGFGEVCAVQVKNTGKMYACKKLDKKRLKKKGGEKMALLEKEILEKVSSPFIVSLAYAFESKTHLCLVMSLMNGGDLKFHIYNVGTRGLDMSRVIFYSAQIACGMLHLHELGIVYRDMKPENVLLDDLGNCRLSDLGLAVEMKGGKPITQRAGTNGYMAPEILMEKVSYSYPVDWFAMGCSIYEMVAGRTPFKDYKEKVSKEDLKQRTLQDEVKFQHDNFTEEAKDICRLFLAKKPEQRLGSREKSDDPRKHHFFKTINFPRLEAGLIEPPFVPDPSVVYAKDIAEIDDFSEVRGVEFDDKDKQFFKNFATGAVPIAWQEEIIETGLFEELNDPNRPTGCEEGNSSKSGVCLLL
Chain of human kinome (Homo sapiens, UniProt Q9UIK4) (Q9UIK4 whole entry): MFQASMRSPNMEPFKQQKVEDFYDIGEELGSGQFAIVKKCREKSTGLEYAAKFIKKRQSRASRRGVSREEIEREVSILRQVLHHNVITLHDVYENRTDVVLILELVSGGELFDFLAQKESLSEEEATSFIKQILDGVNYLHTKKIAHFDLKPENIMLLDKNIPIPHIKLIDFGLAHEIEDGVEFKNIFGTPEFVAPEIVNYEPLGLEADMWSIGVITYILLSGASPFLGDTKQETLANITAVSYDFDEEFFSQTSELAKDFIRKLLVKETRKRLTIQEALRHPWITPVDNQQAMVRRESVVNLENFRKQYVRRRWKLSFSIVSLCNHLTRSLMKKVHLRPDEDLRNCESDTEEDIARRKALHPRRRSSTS

Structure (SMILES): COc1cc(F)ccc1-c1cc(Nc2cc(CS(C)(=N)=O)ccn2)ncc1F (centres unmarked) [VIP152]
- remaining binding at 0.1 µM [1]: 99%
- remaining binding at 1 µM [2]: 68%
- remaining binding at 0.1 µM [3]: 100%
- remaining binding at 1 µM [4]: 94%
- remaining binding at 0.1 µM [5]: 82%
- remaining binding at 0.1 µM [6]: 100%
- remaining binding at 0.1 µM [7]: 100%
- remaining binding at 1 µM ([8]; kinase RSK3(Kin.Dom.1-N-terminal) (Entrez RPS6KA2)): 98%
- remaining binding at 1 µM ([8]; kinase RSK3(Kin.Dom.2-C-terminal) (Entrez RPS6KA2)): 92%
- remaining binding at 0.1 µM [9]: 100%
- remaining binding at 0.1 µM ([10]; PFTK1 (Entrez CDK14), 100 nM): 100%
- remaining binding at 1 µM ([10]; kinase PFTK1 (Entrez CDK14), compound concentration 1000 nM): 84%
- remaining binding at 1 µM [11]: 57%
- remaining binding at 0.1 µM [12]: 100%
- remaining binding at 0.1 µM ([13]; RAF1, 100 nM): 100%
- remaining binding at 1 µM ([13]; kinase RAF1 (Entrez RAF1), compound concentration 1000 nM): 96%
- remaining binding at 0.1 µM [14]: 100%
- remaining binding at 1 µM [15]: 100%
- remaining binding at 0.1 µM [16]: 100%
- remaining binding at 0.1 µM [17]: 100%
- remaining binding at 0.1 µM [18]: 94%
- remaining binding at 0.1 µM ([19]; NIK (Entrez MAP3K14), 100 nM): 87%
- remaining binding at 1 µM ([19]; kinase NIK (Entrez MAP3K14), compound concentration 1000 nM): 88%
- remaining binding at 0.1 µM ([20]; PHKG2, 100 nM): 100%
- remaining binding at 1 µM ([20]; kinase PHKG2 (Entrez PHKG2), compound concentration 1000 nM): 88%
- remaining binding at 0.1 µM [21]: 100%
- remaining binding at 0.1 µM [22]: 80%
- remaining binding at 1 µM [23]: 89%
- remaining binding at 1 µM [24]: 67%
- remaining binding at 0.1 µM [25]: 100%
- remaining binding at 0.1 µM [26]: 100%
- remaining binding at 0.1 µM [27]: 100%
- remaining binding at 0.1 µM [28]: 100%
- remaining binding at 0.1 µM ([29]; PLK2, 100 nM): 100%
- remaining binding at 1 µM ([29]; kinase PLK2 (Entrez PLK2), compound concentration 1000 nM): 83%

Source: paper PMC9898036, “VIP152 is a selective CDK9 inhibitor with pre-clinical in vitro and in vivo efficacy in chronic lymphocytic leukemia” (Leukemia, 2022)
